Legend:
[1] = molecular target: T1, PDE2A (NM002599) (Homo sapiens, UniProt O00408); experiment: Inhibition of recombinant PDE2A (expressed in baculovirus/SF21-cells); assay type: biochemical; conditions: recombinant PDE2A, 0.5 μM [3H]-cAMP, 1000 nM cGMP, 37° C., 30 minutes, SPA; read-out: PDE2A IC50
T1 construct: made in house; host or cells: baculovirus / SF21 insect cells
Experimental: PDE2A (NM002599) was cloned and the gene was inserted in the baculovirus and the enzyme-protein expressed in SF21-cells. The enzyme was isolated from these cells by harvesting the cells by an centrifugation at 200 g to collect the cells. The cells were resuspended in 50 mM Tris-HCl/5 mM MgCl2 buffer (pH=7.4) (Sigma, Deisenhofen, Germany; Merck, Darmstadt, Germany) and lysed by a sonication of the cells (three times for 15 seconds, Labsonic U, Fa. Braun, Degersheim, Switzerland, level “high”). The membrane fraction of PDE2A was obtained by a centrifugation at 48 000 g for 1 h, resuspended in buffer and stored at −70° C.
PDE2A activity was determined in a one step procedure in microtiterplates. The reaction mixture of 100 μl contained 50 mM Tris-HCl/5 mM MgCl2 buffer (pH=7.4) (Sigma, Deisenhofen, Germany; Merck, Darmstadt, Germany), 0.5 μM [3H]-cAMP (Amersham, Buckinghamshire, UK), 1000 nM cGMP and the enzyme. Non-specific enzyme activity was tested in the absence of cGMP. The reaction was initiated by addition of the substrate solution and was carried out at 37° C. for 30 minutes. Enzymatic activity then was stopped by addition of 25 μl SPA-beads (Amersham-Pharmacia). One hour later the mixture was measured in a liquid scintillation counter for microtiterplates (Microbeta Trilux). For pipetting of the incubation mixture the robot Biomek (Fa. Beckman) was routinely used.
The optimal amount of enzyme in the assay has been determined and optimised for each enzyme preparation separately before using the enzyme in compound testing. For determination of IC50 values the Hill-plot, 2-parameter-model, was used.

[2] = molecular target: T2, PDE10A1 (AB 020593) (Homo sapiens, UniProt Q9Y233); experiment: Inhibition of recombinant PDE10A (baculovirus/SF21 system); assay type: biochemical; conditions: recombinant cytosolic PDE10A, 0.1 μM [3H]-cAMP, 37° C., 30 minutes, SPA; read-out: PDE10A IC50
T2 construct: made in house; host or cells: baculovirus / SF21 insect cells (gene synthesized by Entelechon GmbH)
Experimental: The DNA of PDE10A1 (AB 020593, 2340 bp) was synthesized and cloned into the vector pCR4.TOPO (Entelechon GmbH, Regensburg, Germany). The gene was than inserted into a baculovirus vector, ligated with the baculovirus DNA. The enzyme-protein was expressed in SF21-cells. The enzyme was isolated from these cells by harvesting the cells by an centrifugation at 500 g to collect the cells.
The cells were resuspended in 50 mM Tris-HCl/1 mM EDTA/250 mM Sucrose buffer, pH=7.4 (Sigma, Deisenhofen, Germany; Merck, Darmstadt, Germany) and lysed by sonification of the cells (three times for 15 seconds, Labsonic U, Fa. Braun, Degersheim, Switzerland, level “high”). The cytosolic PDE10A was obtained by a centrifugation at 48,000 g for 1 h in the supernatant and stored at −70° C.
PDE activity was determined in a one step procedure in microtiter plates. The reaction mixture of 100 μl contained 50 mM Tris-HCl/5 mM MgCl2 buffer (pH=7.4, Sigma, Deisenhofen, Germany; Merck, Darmstadt, Germany) 0.1 μM [3H]-cAMP (Amersham, Buckinghamshire, UK) and the enzyme. Non-specific enzyme activity was determined without the enzyme. The reaction was initiated by addition of the substrate solution and was carried out at 37° C. for 30 minutes. Enzymatic activity then was stopped by addition of 25 μl Ysi-SPA-beads (Amersham-Pharmacia). One h later the mixture was measured in a liquid scintillation counter for microtiter plates (Microbeta Trilux). The Biomek 2000 (Beckman) was used routinely for pipetting of the incubation mixture. The optimal amount of enzyme in the assay has been determined and optimized for each enzyme preparation separately before using the enzyme in compound testing. For determination of IC50 values the Hill-plot, 2-parameter-model, was used.

T2 sequence (Q9Y233 other isoform, or with tags, fused parts or gaps): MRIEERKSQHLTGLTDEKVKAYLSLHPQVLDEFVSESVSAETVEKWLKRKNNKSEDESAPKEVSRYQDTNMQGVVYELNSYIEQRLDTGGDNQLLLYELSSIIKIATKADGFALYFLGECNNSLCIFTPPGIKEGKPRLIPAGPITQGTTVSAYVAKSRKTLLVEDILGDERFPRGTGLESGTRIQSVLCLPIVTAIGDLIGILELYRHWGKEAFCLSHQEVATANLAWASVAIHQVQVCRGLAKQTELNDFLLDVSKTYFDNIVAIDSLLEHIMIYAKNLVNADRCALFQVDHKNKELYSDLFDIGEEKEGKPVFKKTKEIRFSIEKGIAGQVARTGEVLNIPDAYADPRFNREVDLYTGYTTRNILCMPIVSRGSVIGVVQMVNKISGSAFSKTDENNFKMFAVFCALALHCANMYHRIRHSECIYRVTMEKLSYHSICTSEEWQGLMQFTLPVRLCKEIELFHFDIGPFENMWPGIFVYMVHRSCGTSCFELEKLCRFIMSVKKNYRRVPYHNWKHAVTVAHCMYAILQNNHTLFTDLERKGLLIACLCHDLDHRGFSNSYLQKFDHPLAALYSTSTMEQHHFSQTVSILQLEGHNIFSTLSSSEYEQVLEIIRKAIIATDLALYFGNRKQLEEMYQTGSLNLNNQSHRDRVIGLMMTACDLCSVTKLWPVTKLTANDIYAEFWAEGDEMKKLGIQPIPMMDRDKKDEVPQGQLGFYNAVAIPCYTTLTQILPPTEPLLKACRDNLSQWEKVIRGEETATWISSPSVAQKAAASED
T1 sequence (O00408 whole entry): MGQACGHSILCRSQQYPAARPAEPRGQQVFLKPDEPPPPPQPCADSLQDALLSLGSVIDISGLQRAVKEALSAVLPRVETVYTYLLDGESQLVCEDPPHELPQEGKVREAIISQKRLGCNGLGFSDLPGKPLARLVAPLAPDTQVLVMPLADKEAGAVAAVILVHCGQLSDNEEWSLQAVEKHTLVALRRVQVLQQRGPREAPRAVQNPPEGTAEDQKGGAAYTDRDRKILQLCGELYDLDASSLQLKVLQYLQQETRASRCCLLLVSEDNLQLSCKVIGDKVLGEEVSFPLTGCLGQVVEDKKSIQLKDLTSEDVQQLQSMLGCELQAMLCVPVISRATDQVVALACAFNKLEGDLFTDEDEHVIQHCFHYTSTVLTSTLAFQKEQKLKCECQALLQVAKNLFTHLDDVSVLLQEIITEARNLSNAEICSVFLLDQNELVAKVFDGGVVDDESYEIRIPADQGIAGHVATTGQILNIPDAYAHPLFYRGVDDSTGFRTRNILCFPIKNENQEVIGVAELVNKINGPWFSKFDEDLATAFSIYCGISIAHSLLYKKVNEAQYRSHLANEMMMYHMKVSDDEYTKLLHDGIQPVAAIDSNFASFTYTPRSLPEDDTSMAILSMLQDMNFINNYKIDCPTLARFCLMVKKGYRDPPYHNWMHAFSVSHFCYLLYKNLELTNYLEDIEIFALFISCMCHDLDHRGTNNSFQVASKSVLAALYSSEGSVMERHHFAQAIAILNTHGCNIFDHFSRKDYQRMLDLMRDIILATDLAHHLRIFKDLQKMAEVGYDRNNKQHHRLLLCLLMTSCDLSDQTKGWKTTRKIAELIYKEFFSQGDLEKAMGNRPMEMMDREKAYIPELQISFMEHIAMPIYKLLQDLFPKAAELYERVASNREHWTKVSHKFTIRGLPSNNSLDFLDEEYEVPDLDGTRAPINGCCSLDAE

Compound | IC50 [1] [nM] | IC50 [2] [nM]
9-[2-fluoro-5-(1-methylethoxy)phenyl]-2-methoxy-7-methylimidazo[5,1-c]pyrido[2,3-e][1,2,4]triazine [Example 20] | 102 | 2430
COc1ccc2nnc3c(C)nc(-c4cncnc4)n3c2n1 [Example 80, 2-methoxy-7-methyl-9-pyrimidin-5-ylimidazo[5,1-c]pyrido[2,3-e][1,2,4]triazine] | 4070 | 5950
COc1ccc2nnc3c(C)nc(-c4ccccc4C(N)=O)n3c2n1 [Example 103, 2-(2-methoxy-7-methylimidazo[5,1-c]pyrido[2,3-e][1,2,4]triazin-9-yl)benzamide] | 806 | 1410
COc1ccc2nnc3c(C)nc(-c4ccc(F)c(OC)c4)n3c2n1 [Example 23, 9-(4-fluoro-3-methoxyphenyl)-2-methoxy-7-methylimidazo[5,1-c]pyrido[2,3-e][1,2,4]triazine] | 26.4 | 34.9
COc1cc(-c2nc(C)c3nnc4ccc(OC)nc4n23)c(Cl)cn1 [Example 46, 9-(5-chloro-2-methoxypyridin-4-yl)-2-methoxy-7-methylimidazo[5,1-c]pyrido[2,3-e][1,2,4]triazine] | 70.1 | 191
COc1ccc2nnc3c(C)nc(-c4ccccc4C(F)(F)F)n3c2n1 [Example 102, 9-[2-(trifluoromethyl)phenyl]-2-methoxy-7-methylimidazo[5,1-c]pyrido[2,3-e][1,2,4]triazine] | 48.6 | 96.8
COc1ccc2nnc3c(C)nc(-c4cc(F)ccc4Cl)n3c2n1 [Example 62, 9-(2-chloro-5-fluorophenyl)-2-methoxy-7-methylimidazo[5,1-c]pyrido[2,3-e][1,2,4]triazine] | 5.32 | 21.2
4-(2-methoxy-7-methylimidazo[5,1-c]pyrido[2,3-e][1,2,4]triazin-9-yl)-3-methylisoxazole [Example 68] | 187 | 1020
COc1ccc2nnc3c(C)nc(-c4cnccc4OC)n3c2n1 [Example 47, 2-methoxy-9-(4-methoxypyridin-3-yl)-7-methylimidazo[5,1-c]pyrido[2,3-e][1,2,4]triazine] | 69.4 | 178
COc1ccc2nnc3c(C)nc(-c4ccncc4Cl)n3c2n1 [Example 45, 9-(3-chloropyridin-4-yl)-2-methoxy-7-methylimidazo[5,1-c]pyrido[2,3-e][1,2,4]triazine] | 31.7 | 36.9
CCOc1ccc(F)c(-c2nc(C)c3nnc4ccc(OC)nc4n23)c1 [Example 28, 9-(5-ethoxy-2-fluorophenyl)-2-methoxy-7-methylimidazo[5,1-c]pyrido[2,3-e][1,2,4]triazine] | 28.6 | 114
COc1ccc2nnc3c(C)nc(-c4cccc(OC)c4OC)n3c2n1 [Example 37, 9-(2,3-dimethoxyphenyl)-2-methoxy-7-methylimidazo[5,1-c]pyrido[2,3-e][1,2,4]triazine] | 274 | 146
COc1cc(F)cc(-c2nc(C)c3nnc4ccc(OC)nc4n23)c1 [Example 21, 9-(3-fluoro-5-methoxyphenyl)-2-methoxy-7-methylimidazo[5,1-c]pyrido[2,3-e][1,2,4]triazine] | 37.8 | 50.4
COc1ccc2nnc3c(C)nc(-c4cc(C(C)=O)ccc4Cl)n3c2n1 [Example 49, 1-[4-chloro-3-(2-methoxy-7-methylimidazo[5,1-c]pyrido[2,3-e][1,2,4]triazin-9-yl)phenyl]ethanone] | 27.5 | 403
COc1ccc2nnc3c(C)nc(-c4ccc(Cl)c(Cl)c4)n3c2n1 [Example 92, 9-(3,4-dichlorophenyl)-2-methoxy-7-methylimidazo[5,1-c]pyrido[2,3-e][1,2,4]triazine] | 660 | 231
COc1ccc2nnc3c(C)nc(-c4cc(Cl)cnc4OC)n3c2n1 [Example 41, 9-(5-chloro-2-methoxypyridin-3-yl)-2-methoxy-7-methylimidazo[5,1-c]pyrido[2,3-e][1,2,4]triazine] | 54.3 | 291
COc1ccc(F)c(-c2nc(C)c3nnc4ccc(OC)nc4n23)c1 [Example 19, 9-(2-fluoro-5-methoxyphenyl)-2-methoxy-7-methylimidazo[5,1-c]pyrido[2,3-e][1,2,4]triazine] | 2.99 | 9.83

Second part, the compound after the results:

IC50 [1] [nM] | IC50 [2] [nM] | Compound
12 | 54.5 | COc1ccc2nnc3c(C)nc(-c4c(Cl)cccc4OC)n3c2n1 [Example 86, 9-(2-chloro-6-methoxyphenyl)-2-methoxy-7-methylimidazo[5,1-c]pyrido[2,3-e][1,2,4]triazine]
5.52 | 55.6 | COc1ccc(C)c(-c2nc(C)c3nnc4ccc(OC)nc4n23)c1 [Example 100, 2-methoxy-9-(5-methoxy-2-methylphenyl)-7-methylimidazo[5,1-c]pyrido[2,3-e][1,2,4]triazine]
7.54 | 21.6 | COc1ccc2nnc3c(C)nc(-c4ccc(C)cc4Cl)n3c2n1 [Example 61, 9-(2-chloro-4-methylphenyl)-2-methoxy-7-methylimidazo[5,1-c]pyrido[2,3-e][1,2,4]triazine]
21.3 | 35.6 | COc1ccc2nnc3c(C)nc(-c4cccc(F)c4C)n3c2n1 [Example 56, 9-(3-fluoro-2-methylphenyl)-2-methoxy-7-methylimidazo[5,1-c]pyrido[2,3-e][1,2,4]triazine]
22.9 | 120 | COc1ccc2nnc3c(C)nc(-c4c(C)nn(C)c4C)n3c2n1 [Example 65, 2-methoxy-7-methyl-9-(1,3,5-trimethyl-1H-pyrazol-4-yl)imidazo[5,1-c]pyrido[2,3-e][1,2,4]triazine]
523 | 362 | COc1ccc2nnc3c(C)nc(-c4cnn(C)c4)n3c2n1 [Example 79, 2-methoxy-7-methyl-9-(1-methyl-1H-pyrazol-4-yl)imidazo[5,1-c]pyrido[2,3-e][1,2,4]triazine]
23 | 64.5 | COc1ccc2nnc3c(C)nc(-c4sc(C)nc4C)n3c2n1 [Example 54, 9-(2,4-dimethyl-1,3-thiazol-5-yl)-2-methoxy-7-methylimidazo[5,1-c]pyrido[2,3-e][1,2,4]triazine]
21.2 | 64.4 | COc1ccc2nnc3c(C)nc(-c4ccc(F)cc4C)n3c2n1 [Example 57, 9-(4-fluoro-2-methylphenyl)-2-methoxy-7-methylimidazo[5,1-c]pyrido[2,3-e][1,2,4]triazine]
24.3 | 38 | COc1ccc2nnc3c(C)nc(-c4cc(F)ccc4C)n3c2n1 [Example 73, 9-(5-fluoro-2-methylphenyl)-2-methoxy-7-methylimidazo[5,1-c]pyrido[2,3-e][1,2,4]triazine]
142 | 388 | COc1ccc2nnc3c(C)nc(-c4cnccc4C)n3c2n1 [Example 51, 2-methoxy-7-methyl-9-(4-methylpyridin-3-yl)imidazo[5,1-c]pyrido[2,3-e][1,2,4]triazine]
55.2 | 86.8 | COc1ccc2nnc3c(C)nc(-c4cccc(C)c4F)n3c2n1 [Example 63, 9-(2-fluoro-3-methylphenyl)-2-methoxy-7-methylimidazo[5,1-c]pyrido[2,3-e][1,2,4]triazine]

Reference: patent US20100120762A1, “Triazine derivatives as inhibitors of phosphodiesterases” (WYETH, priority 2008, published 2010)
